Data taken from patent publication US12291519B2, “2-hydroxycycloalkane-1-carbamoyl” (Idorsia Pharmaceuticals Ltd, priority 2019, dated 2025).
pIC50: −log10 of the molar value.

Legend:
human Gal-1 (hGal-1) = assay: Competitive binding assay: biotinylated hGal-1 binding to microplate-adsorbed asialofetuin (ASF); details: Activity on hGal-1; binding of biotinylated hGal-1 to ASF-coated plates; mean values
Description: (§1) Evaluation of Compound Inhibitory Activity (IC50)
The inhibitory activity of compounds is determined in competitive binding assays. This spectrophotometric assay measures the binding of biotinylated human Gal-3 (hGal-3) or human Gal-1 (hGAl-1), respectively, to a microplate-adsorbed glycoprotein, asialofetuin (ASF) (Proc Natl Acad Sci USA. 2013 Mar. 26; 110(13):5052-7.). Alternatively, and preferably, a human Gal-1 version in which all six cysteines are substituted by serines may be used.
Briefly, compounds are serially diluted in DMSO (working dilutions). ASF-coated 384 well pates are supplemented with 22.8 μL/well of biotinylated hGal-3 or hGal-1 in assay buffer (i.e. 300-1000 ng/mL biotinylated hGal-3 or hGal-1) to which 1.2 μL of compound working dilutions are added and mixed.
(§2) Plates are incubated for 3 hours at 4° C. then washed with cold assay buffer (3×50 uL), incubated for 1 hour with 25 μL/well of a streptavidin-peroxidases solution (diluted in assay buffer to 80 ng/mL) at 4° C., followed by further washing steps with assay buffer (3×50 uL). Finally, 25 μL/well of ABTS substrate is added. OD (410 nm) is recorded after 30 to 45 min and IC50 values are calculated.
(§3) The calculated IC50 values may fluctuate depending on the daily assay performance. Fluctuations of this kind are known to those skilled in the art. IC50 values from several measurements are given as mean values.

human Gal-3 (hGal-3) = human Gal-3 (hGal-3) (Homo sapiens (Human), UniProt P17931); assay: Competitive binding assay: biotinylated hGal-3 binding to microplate-adsorbed asialofetuin (ASF); details: Activity on hGal-3; binding of biotinylated hGal-3 to ASF-coated plates; mean values
Description: as §1
The inhibitory activity of compounds is determined in competitive binding assays. […] Alternatively, and preferably, a human Gal-1 version in which all six cysteines are substituted by serines may be used.
Briefly, compounds are serially diluted in DMSO (working dilutions).
as §2, with “added.” for “added. OD (410 nm) is recorded after 30 to 45 min and IC50 values are calculated.”
as §3

Chain of human Gal-1 (hGal-1) (P09382 2-135 limits assumed): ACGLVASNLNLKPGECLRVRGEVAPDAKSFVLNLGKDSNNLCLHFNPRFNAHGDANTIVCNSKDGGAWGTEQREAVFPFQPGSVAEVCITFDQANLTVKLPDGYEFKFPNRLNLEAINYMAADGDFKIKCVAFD
Chain of human Gal-3 (hGal-3) (P17931 whole entry): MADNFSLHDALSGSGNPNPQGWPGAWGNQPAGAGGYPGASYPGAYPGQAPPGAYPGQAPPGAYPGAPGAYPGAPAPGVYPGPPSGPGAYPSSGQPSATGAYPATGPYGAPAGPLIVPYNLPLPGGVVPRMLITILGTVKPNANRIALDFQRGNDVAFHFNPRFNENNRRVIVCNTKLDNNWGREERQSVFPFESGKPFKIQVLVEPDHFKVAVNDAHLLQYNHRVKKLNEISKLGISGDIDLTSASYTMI

| Compound | pIC50 (human Gal-1 (hGal-1)) | pIC50 (human Gal-3 (hGal-3)) |
| --- | --- | --- |
| Cc1ncncc1CN(C(=O)[C@@H]1O[C@H](CO)[C@H](O)[C@H](n2cc(-c3cc(F)c(F)c(F)c3)nn2)[C@H]1O)[C@H]1CCCC[C@@H]1O [Example 29, (2R,3R,4S,5R,6R)-3,5-dihydroxy-N-((1S,2S)-2-hydroxycyclohexyl)-6-(hydroxymethyl)-N-((4-methylpyrimidin-5-yl)methyl)-4-(4-(3,4,5-trifluorophenyl)-1H-1,2,3-triazol-1-yl)tetrahydro-2H-pyran-2-carboxamide] | 5.36 | 6.63 |
| CO[C@@H]1[C@@H](n2cc(-c3cc(F)c(F)c(F)c3)nn2)[C@@H](O)[C@@H](CO)O[C@H]1C(=O)N(Cc1ccsc1C)[C@H]1CCCC[C@@H]1O [Example 38, (2R,3R,4S,5R,6R)-5-hydroxy-N-((1S,2S)-2-hydroxycyclohexyl)-6-(hydroxymethyl)-3-methoxy-N-((2-methylthiophen-3-yl)methyl)-4-(4-(3,4,5-trifluorophenyl)-1H-1,2,3-triazol-1-yl)tetrahydro-2H-pyran-2-carboxamide] | 5.77 | 6.68 |
| O=C([C@@H]1O[C@H](CO)[C@H](O)[C@H](n2cc(-c3cc(F)c(F)c(F)c3)nn2)[C@H]1O)N(Cc1cccc(Cl)c1)[C@H]1CCCC[C@@H]1O [Example 2, (2R,3R,4S,5R,6R)-N-(3-chlorobenzyl)-3,5-dihydroxy-N-((1S,2S)-2-hydroxycyclohexyl)-6-(hydroxymethyl)-4-(4-(3,4,5-trifluorophenyl)-1H-1,2,3-triazol-1-yl)tetrahydro-2H-pyran-2-carboxamide] | 4.64 | 6.52 |
| CO[C@@H]1[C@@H](n2cc(-c3ccc(Cl)c(F)c3)nn2)[C@@H](O)[C@@H](CO)O[C@H]1C(=O)N(c1cc(Cl)cc(Cl)c1)[C@H]1CCCC[C@@H]1O [Example 179, (2R,3R,4S,5R,6R)-4-(4-(4-chloro-3-fluorophenyl)-1H-1,2,3-triazol-1-yl)-N-(3,5-dichlorophenyl)-5-hydroxy-N-((1S,2S)-2-hydroxycyclohexyl)-6-(hydroxymethyl)-3-methoxytetrahydro-2H-pyran-2-carboxamide] | 6.23 | 8.00 |
| CO[C@@H]1[C@@H](n2cc(-c3cc(F)c(F)c(F)c3)nn2)[C@@H](O)[C@@H](CO)O[C@H]1C(=O)N(c1ccc2ncsc2c1)[C@H]1CCCC[C@@H]1O [Example 93, (2R,3R,4S,5R,6R)-N-(benzo[d]thiazol-6-yl)-5-hydroxy-N-((1S,2S)-2-hydroxycyclohexyl)-6-(hydroxymethyl)-3-methoxy-4-(4-(3,4,5-trifluorophenyl)-1H-1,2,3-triazol-1-yl)tetrahydro-2H-pyran-2-carboxamide] | 6.79 | 7.70 |
| CO[C@@H]1[C@@H](n2cc(-c3ccc(F)c(F)c3)nn2)[C@@H](O)[C@@H](CO)O[C@H]1C(=O)N(c1cc(Cl)cc(Cl)c1)[C@H]1CCCC[C@@H]1O [Example 162, (2R,3R,4S,5R,6R)-N-(3,5-dichlorophenyl)-4-(4-(3,4-difluorophenyl)-1H-1,2,3-triazol-1-yl)-5-hydroxy-N-((1S,2S)-2-hydroxycyclohexyl)-6-(hydroxymethyl)-3-methoxytetrahydro-2H-pyran-2-carboxamide] | 6.87 | 7.49 |
| CO[C@@H]1[C@@H](n2cc(-c3cc(F)cc(F)c3)nn2)[C@@H](O)[C@@H](CO)O[C@H]1C(=O)N(c1cccc(Br)c1)[C@H]1CCCC[C@@H]1O [Example 84, (2R,3R,4S,5R,6R)-N-(3-bromophenyl)-4-(4-(3,5-difluorophenyl)-1H-1,2,3-triazol-1-yl)-5-hydroxy-N-((1S,2S)-2-hydroxycyclohexyl)-6-(hydroxymethyl)-3-methoxytetrahydro-2H-pyran-2-carboxamide] | 5.72 | 7.60 |
| CC(=O)O[C@@H]1[C@@H](n2cc(-c3cc(F)cc(F)c3)nn2)[C@@H](O)[C@@H](CO)O[C@H]1C(=O)N(Cc1ccnn1C)[C@H]1CCCC[C@@H]1O [Example 49, (2R,3R,4S,5R,6R)-4-(4-(3,5-difluorophenyl)-1H-1,2,3-triazol-1-yl)-5-hydroxy-2-(((1S,2S)-2-hydroxycyclohexyl)((1-methyl-1H-pyrazol-5-yl)methyl)carbamoyl)-6-(hydroxymethyl)tetrahydro-2H-pyran-3-yl acetate] | 5.71 | 6.89 |
| O=C([C@@H]1O[C@H](CO)[C@H](O)[C@H](n2cc(-c3cc(F)c(Br)c(F)c3)nn2)[C@H]1O)N(Cc1ccccc1C(F)(F)F)[C@H]1CCCC[C@@H]1O [Example 69, (2R,3R,4S,5R,6R)-4-(4-(4-bromo-3,5-difluorophenyl)-1H-1,2,3-triazol-1-yl)-3,5-dihydroxy-N-((1S,2S)-2-hydroxycyclohexyl)-6-(hydroxymethyl)-N-(2-(trifluoromethyl)benzyl)tetrahydro-2H-pyran-2-carboxamide] | 5.59 | 7.08 |
| O=C(CO[C@@H]1[C@@H](n2cc(-c3cc(F)c(F)c(F)c3)nn2)[C@@H](O)[C@@H](CO)O[C@H]1C(=O)N(c1cc(Cl)cc(Cl)c1)[C@H]1CCCC[C@@H]1O)N1CC[C@@H](O)C1 [Example 126, (2R,3R,4S,5R,6R)—N-(3,5-dichlorophenyl)-5-hydroxy-N-((1S,2S)-2-hydroxycyclohexyl)-6-(hydroxymethyl)-3-(2-((R)-3-hydroxypyrrolidin-1-yl)-2-oxoethoxy)-4-(4-(3,4,5-trifluorophenyl)-1H-1,2,3-triazol-1-yl)tetrahydro-2H-pyran-2-carboxamide] | 6.87 | 7.80 |
| Nc1nc(Cl)c(CN(C(=O)[C@@H]2O[C@H](CO)[C@H](O)[C@H](n3cc(-c4cc(F)c(F)c(F)c4)nn3)[C@H]2O)[C@H]2CCCC[C@@H]2O)s1 [Example 15, (2R,3R,4S,5R,6R)-N-((2-amino-4-chlorothiazol-5-yl)methyl)-3,5-dihydroxy-N-((1S,2S)-2-hydroxycyclohexyl)-6-(hydroxymethyl)-4-(4-(3,4,5-trifluorophenyl)-1H-1,2,3-triazol-1-yl)tetrahydro-2H-pyran-2-carboxamide] | 5.50 | 6.38 |
| CO[C@@H]1[C@@H](n2cc(-c3cc(F)c(F)c(F)c3)nn2)[C@@H](O)[C@@H](CO)O[C@H]1C(=O)N(Cc1sccc1C)[C@H]1CCCC[C@@H]1O [Example 34] | 6.06 | 7.16 |
| CO[C@@H]1[C@@H](n2cc(-c3cc(F)c(F)c(F)c3)nn2)[C@@H](O)[C@@H](CO)O[C@H]1C(=O)N(c1cccc(C#N)c1)[C@H]1CCCC[C@@H]1O [Example 115, (2R,3R,4S,5R,6R)-N-(3-cyanophenyl)-5-hydroxy-N-((1S,2S)-2-hydroxycyclohexyl)-6-(hydroxymethyl)-3-methoxy-4-(4-(3,4,5-trifluorophenyl)-1H-1,2,3-triazol-1-yl)tetrahydro-2H-pyran-2-carboxamide] | 6.00 | 7.60 |
| COc1cc(C#N)cc(N(C(=O)[C@@H]2O[C@H](CO)[C@H](O)[C@H](n3cc(-c4ccc(C#N)c(F)c4)nn3)[C@H]2OC)[C@H]2CCCC[C@@H]2O)c1 [Example 205, (2R,3R,4S,5R,6R)-4-(4-(4-cyano-3-fluorophenyl)-1H-1,2,3-triazol-1-yl)-N-(3-cyano-5-methoxyphenyl)-5-hydroxy-N-((1S,2S)-2-hydroxycyclohexyl)-6-(hydroxymethyl)-3-methoxytetrahydro-2H-pyran-2-carboxamide] | 5.74 | 7.06 |
| CO[C@@H]1[C@@H](n2cc(-c3ccc(C#N)c(F)c3)nn2)[C@@H](O)[C@@H](CO)O[C@H]1C(=O)N(c1cc(C)cc(C#N)c1)[C@H]1CCCC[C@@H]1O [Example 206, (2R,3R,4S,5R,6R)-4-(4-(4-cyano-3-fluorophenyl)-1H-1,2,3-triazol-1-yl)-N-(3-cyano-5-methylphenyl)-5-hydroxy-N-((1S,2S)-2-hydroxycyclohexyl)-6-(hydroxymethyl)-3-methoxytetrahydro-2H-pyran-2-carboxamide] | 5.87 | 6.90 |
| CO[C@@H]1[C@@H](n2cc(-c3cc(F)c(Cl)c(Cl)c3)nn2)[C@@H](O)[C@@H](CO)O[C@H]1C(=O)N(c1ccc2ncsc2c1)[C@H]1CCCC[C@@H]1O [Example 168, (2R,3R,4S,5R,6R)-N-(benzo[d]thiazol-6-yl)-4-(4-(3,4-dichloro-5-fluorophenyl)-1H-1,2,3-triazol-1-yl)-5-hydroxy-N-((1S,2S)-2-hydroxycyclohexyl)-6-(hydroxymethyl)-3-methoxytetrahydro-2H-pyran-2-carboxamide] | 6.17 | 7.60 |
